Source: patent publication US6506749B2, “7-oxo-pyridopyrimidines (I)” (Syntex (U.S.A.) LLC, priority 2000, dated 2003)
Where a name gives a salt, the structure may show the parent alone.

Row | melting point | Compound
1 | 232.1 to 233.1 °C | Cn1c(=O)c(-c2ccccc2Cl)cc2cnc(NC3CCSCC3)nc21 (as salt: HCl) [Example 78, 2-(4-tetrahydrothiopyranylamino)-6-(2-chlorophenyl)-8-methyl-8H-pyrido[2,3-d]pyrimidin-7-one]
2 | 196.1 to 196.6 °C | Cn1c(=O)c(-c2ccccc2Cl)cc2cnc(NC3CCC(OC=O)CC3)nc21 (centres unmarked) [Cpd 4]
3 | 228.3 to 228.9 °C | Cl.Cn1c(=O)c(-c2ccccc2Cl)cc2cnc(NC3CCN(CC#N)CC3)nc21
4 | 193.9 to 194.5 °C | Cl.Cn1c(=O)c(-c2ccccc2Cl)cc2cnc(NC3CCOC3)nc21 (centres unmarked)
5 | 210.7 to 211.9 °C | Cl.Cn1cc(/C=N\C(=N)NC2CCOCC2)cc(-c2ccccc2N)c1=O
6 | 200.9 to 201.2 °C | CC(=O)OC1CCC(Nc2ncc3cc(-c4ccccc4Cl)c(=O)n(C)c3n2)CC1 (centres unmarked) [Cpd 5]
7 | 153.6 to 157 °C | Cl.Cn1c(=O)c(-c2ccccc2Cl)cc2cnc(NC3CCC(CO)CC3)nc21 (centres unmarked)
8 | 148 to 151.5 °C | Cl.Cn1c(=O)c(-c2ccccc2Cl)cc2cnc(NCC3CCC(O)CC3)nc21 (centres unmarked)
9 | 165 to 169 °C | CS(=O)(=O)N1CCC(Nc2ncc3cc(-c4ccccc4Cl)c(=O)n(-c4ccc(F)cc4)c3n2)CC1 (as salt: HCl) [Example 96]
10 | > 300 °C | Cl.O=c1[nH]c2nc(NC3CCNCC3)ncc2cc1-c1ccccc1Cl
11 | 208 to 210 °C | O=C1c2ccccc2C(=O)N1CCn1c(=O)c(-c2ccccc2Cl)cc2cnc(N[C@H]3CC[C@H](O)CC3)nc21 (as salt: HCl) [Example 77]
12 | > 300 °C | C[C@H](Nc1ncc2cc(-c3ccccc3Cl)c(=O)n(N)c2n1)C(C)(C)O.Cl
13 | 185 to 188.6 °C | Cl.Cn1c(=O)c(-c2ccccc2Cl)cc2cnc(NC3(CO)CCCCC3)nc21
14 | > 300 °C | CC(=O)O[C@H]1CC[C@H](Nc2ncc3cc(-c4ccccc4Cl)c(=O)[nH]c3n2)CC1.Cl
15 | 189 to 192 °C | COC1CCC(Nc2ncc3cc(-c4ccccc4Cl)c(=O)n(C)c3n2)CC1.Cl (centres unmarked)
16 | 140 to 144 °C | Cl.Cn1c(=O)c(-c2ccccc2Cl)cc2cnc(N[C@H]3CCCCNC3=O)nc21
17 | > 300 °C | CS(=O)(=O)N[C@H]1CC[C@H](Nc2ncc3cc(-c4ccccc4Cl)c(=O)[nH]c3n2)CC1.Cl
18 | 191.1 to 194.3 °C | O=c1[nH]c2nc(N[C@H]3CC[C@H](O)CC3)ncc2cc1-c1ccccc1Cl (as salt: hydrochloride) [Example 11, 2-(trans-4-hydroxycyclohexylamino)-6-(2-chlorophenyl)-pyrido[2,3-d]pyrimidin-7-ol]
19 | 132 to 136 °C | CC(C)S(=O)(=O)N1CCC(Nc2ncc3cc(-c4ccccc4Cl)c(=O)n(C)c3n2)CC1.Cl
20 | 191.1 to 194.3 °C | Cl.O=c1[nH]c2nc(N[C@H]3CC[C@H](O)CC3)ncc2cc1-c1ccccc1Cl
21 | 163.4 to 171.1 °C | Cn1c(=O)c(-c2ccccc2Cl)cc2cnc(N[C@H]3CC[C@H](N)CC3)nc21 (as salt: HCl) [Example 38]
22 | 240 to 243 °C | Cl.Nn1c(=O)c(-c2ccccc2Cl)cc2cnc(NC3CCS(=O)(=O)CC3)nc21
23 | 163.4 to 171.1 °C | Cn1c(=O)c(-c2ccccc2Cl)cc2cnc(N[C@H]3CC[C@H](O)CC3)nc21 (as salt: salt) [Cpd 1]
24 | 59.7 to 63.8 °C | CCCS(=O)(=O)N1CCC(Nc2ncc3cc(-c4ccccc4OC)c(=O)n(C)c3n2)CC1.Cl
25 | 192 to 202 °C | Cl.Cn1c(=O)c(-c2ccccc2Cl)cc2cnc(NC3CCN(C(N)=O)CC3)nc21
26 | 199.2 to 199.5 °C | CC1C(=O)C(c2ccccc2Cl)=Cc2cnc(NOCc3ccccc3)nc21.Cl (centres unmarked)
27 | 222.9 to 225.9 °C | Cc1ccccc1-c1cc2cnc(NC3CCOCC3)nc2n(C)c1=O.Cl
28 | 180 to 183 °C | Cl.Cn1c(=O)c(-c2ccccc2Cl)cc2cnc(NC3CCN(CC(F)(F)F)CC3)nc21
29 | 240 to 258 °C | Cc1ccccc1-c1cc2cnc(NC3CCS(=O)(=O)CC3)nc2n(C)c1=O.Cl
